Patent US20140314686A1, “POLYPHENOL/FLAVONOID COMPOSITIONS AND METHODS OF FORMULATING ORAL HYGIENIC PRODUCTS” (API Genesis, LLC, priority 2013, published 2014)
≈ marks a conversion by molar mass, not a printed value.

What was measured:
[1] = Stability of soluble flavone sodium salts in bicarbonate/peroxide dentifrice; type: physicochemical; details: dentifrice with sodium bicarbonate, peroxide and peroxide stabilizer, pH ~10-10.5
Experimental: It was experimentally determined that the toothpaste formulations containing both sodium bicarbonate and sodium carbonate peroxide together with stabilizing polymer formulations had pHs of ˜10-10.5. When aglycone flavone (i.e., apigenin and luteolin) powders were added to dentifrices including sodium bicarbonate, sodium bicarbonate peroxide and a peroxide stabilizer, it was also determined that soluble flavone sodium salts were formed that were stable in these highly oxidative peroxide compositions. The presence of stable soluble alkali metal flavone salts with highly anti-oxidant and anti-inflammatory properties in an emulsion formulation was totally unanticipated since aglycone flavones are prone to oxidative decomposition.

[2] = Solubility in PS80 via the thermal processing method (polyphenol/surfactant concentrate); details: for PS80 Solution Temp.: temperature of complete solubilization in PS80; for solubility: 20 °C, organic solvent or mixture
Experimental: The molar ratio of active agent (polyphenol) to solubilizing agent (surfactant) is typically 1:2 to 1:5, and at times much greater, e.g. 1:2 to 1:20 depending on the active agent/surfactant combination.
Apigenin/Polysorbate 80 (PS80) formulations can be made as follows: • Apigenin powder and PS80 are mixed in the ratio from about 5 to 10 wt. % of apigenin to 95 to 90 wt. % PS80.
All solubility tests were conducted with 20 ml of PS80 contained within 80 ml Pyrex glass beakers.

[3] = Solubility in water
[4] = EGCG retention in saliva after brushing with alkaline EGCG toothpaste (colour on alkalizing); type: in vivo, human; details: PeroxiCare toothpaste with 0.1 wt. % EGCG and 0.1 wt. % ascorbic acid, saliva after brushing and rinsing
[5] = Solubilization in Listerine mouth rinse via sodium salt and pH adjustment; type: physicochemical
Experimental: 100 grams of the Listerine® Resveratrol Containing Mouth Rinse formulation was prepared as follows: • 1. 98.4 grams of the Listerine® caramel colored mouth rinse was added to a 300 ml Pyrex glass beaker. […] About 0.2 grams of fine NaOH crystals were added to the mixture from Step 2 and thoroughly mixed. A uniformly caramel colored blend resulted with a measured pH of ˜10. […] The pH the mixture from Step 3 was adjusted to a pH 6.5 by the addition of about 0.2 grams of citric acid crystals. […] • 1. 98.6 grams of the Listerine® caramel colored mouthrinse was added to a 300 ml Pyrex glass beaker. […] About 0.2 grams of fine NaOH crystals were added to the mixture from Step 2 and thoroughly mixed. A uniformly caramel colored blend resulted with a measured pH of ˜10. […] The pH the mixture from Step 2 was adjusted to a pH 8 by the addition of about 0.2 grams of citric acid crystals.

[6] = pH required for a stable aqueous microemulsion with nonionic surfactants; type: physicochemical; details: nonionic surfactants Polysorbate 80 and Cremophor RH40
Text: In one embodiment, a flavonoid/polyphenol microemulsion can be made as follows: • The mixing of a flavonoid/polyphenol with an alkali metal component (e.g., alkali metal hydroxide(s) and/or alkaline metal salt(s)) to form an alkali metal flavonoid/polyphenol salt within an aqueous solution. • Adding a surfactant in the ratio from about 5 to 20 wt. % of the flavonoid/polyphenol to 95 to 80 wt. % of a surfactant; preferable a nonionic surfactant. • This mixture is thoroughly stirred to form a uniform clear solution. • Adjusting (e.g., acidifying) the alkali metal flavonoid/polyphenol salt with an agent (e.g., an acidic agent such as acetic acid and/or hydrochloric acid) to a pH level required to form a clear and stable microemulsion.
Stable microemulsions with apigenin and the nonionic surfactants, Polysorbate 80 and Cremophor RH40, were achieved provided a pH level of 8.0 to 8.5 was maintained. For luteolin, it as determined that a pH of 7 was required to maintain a stable aqueous microemulsion; and for resveratrol, a pH of >4.5 to 7.5.

SMILES	PS80 Solution Temp. [2]	solubility ([3]; water, 20 °C)	solubility ([2]; Polysorbate 80 (PS80))	also measured
O=c1cc(-c2ccc(O)cc2)oc2cc(O)cc(O)c12 [Apigenin, 4′,5,7,-trihydroxyflavone]	–	–	–	stability of soluble flavone sodium salt in oxidative peroxide composition [1]: stable; concentration of stable concentrate in PS80 ([2]; 5.0 wt. % in PS80, heated approaching 300 degree C, cooled to ambient): 50000 µg/mL
O.Oc1cc(O)c2c(c1)O[C@H](c1ccc(O)c(O)c1)[C@@H](O)C2 [Catechin]	~210 °C	–	–	Water Solubility ([3]; at 20° C.): ~5 mg/mL; PS80 Solubility ([2]; at 20° C., 20 ml PS80, not the maximum solubility levels in PS80): 50 mg/mL
O=C(O[C@@H]1Cc2c(O)cc(O)cc2O[C@@H]1c1cc(O)c(O)c(O)c1)c1cc(O)c(O)c(O)c1 [Epigallocatechin Gallate (EGCG), Epigallocatechin gallate]	~150 °C	~25 mg/mL (≈ 54500 µM)	50 mg/mL	retention in saliva (red/brown color on alkalizing saliva to pH ~10.5) [4]: retained
O=c1c(-c2ccc(O)cc2)coc2cc(O)cc(O)c12 [Genistein]	~220 °C	–	–	solubility ([3]; 20 °C, water): 0.12 mg/mL (≈ 444 µM); solubility [2]: 50 mg/mL
O=c1cc(-c2ccc(O)c(O)c2)oc2cc(O)cc(O)c12 [Luteolin, 3′,4′,5,7-tetrahydroxyflavone]	–	–	–	stability of soluble flavone sodium salt in oxidative peroxide composition [1]: stable; concentration in transparent solution ([5]; NaOH to pH ~10, citric acid to pH 8): 1500 µg/mL; pH level for a stable aqueous microemulsion [6]: 7
Oc1ccc(C=Cc2cc(O)cc(O)c2)cc1 [Resveratrol, resveratrol]	–	–	–	concentration in transparent solution ([5]; NaOH to pH ~10, citric acid to pH 6.5): 1200 µg/mL

Continued, in another order:

PS80 Solution Temp. [2]	solubility ([3]; water, 20 °C)	solubility ([2]; Polysorbate 80 (PS80))	SMILES	also measured
~140 °C	0.08 mg/mL (≈ 315 µM)	50 mg/mL	O=c1cc(-c2ccccc2)oc2cc(O)cc(O)c12 [Chrysin]	–
~280 °C	0.04 mg/mL (≈ 147 µM)	50 mg/mL	O=C1C[C@@H](c2ccc(O)cc2)Oc2cc(O)cc(O)c21 [Naringenin]	–
